Measurements as given in ChEMBL document CHEMBL1201862, “PubChem BioAssay data set” (2004).
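Cultured in 96-well plates, cells were exposed to test compound for 48 hours across five concentrations. GI50 = concentration required for 50% inhibition of growth.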 Activity calls are given as the source filed them. Cut-off read from the data, not from the text of the source: active = GI50 up to about 1.1 µM and inactive = higher.

What was measured:
Experiment in all cases: inhibition of tumour cell growth, NCI panel, 48 h
A498 = tested on: A498
CCRF-CEM = tested on: CCRF-CEM
COLO 205 = tested on: COLO 205
HOP-92 = tested on: HOP-92
K562 = tested on: K562
LOX IMVI = tested on: LOX IMVI
MDA-N = tested on: MDA-N
Malme-3M = tested on: Malme-3M
NCI-H226 = tested on: NCI-H226
OVCAR-5 = tested on: OVCAR-5
OVCAR-8 = tested on: OVCAR-8
PC-3 = tested on: PC-3
SK-MEL-5 = tested on: SK-MEL-5
SNB-75 = tested on: SNB-75
SR = tested on: SR
SW-620 = tested on: SW-620
T47D = tested on: T47D
U-251 = tested on: U-251
UACC-62 = tested on: UACC-62
SK-OV-3 = tested on: SK-OV-3

Structure (SMILES)	GI50 (A498)	GI50 (CCRF-CEM)	GI50 (COLO 205)	GI50 (HOP-92)	GI50 (K562)	GI50 (LOX IMVI)	GI50 (MDA-N)	GI50 (Malme-3M)	GI50 (NCI-H226)	GI50 (OVCAR-5)	GI50 (OVCAR-8)	GI50 (PC-3)	GI50 (SK-MEL-5)	GI50 (SNB-75)	GI50 (SR)	GI50 (SW-620)	GI50 (T47D)	GI50 (U-251)	GI50 (UACC-62)	GI50 (SK-OV-3)
CC(=O)OCC1OC(n2c3c(c(-c4ccc(Cl)cc4)c(C#N)c2=S)C(=O)CC(C)(C)C3)C(OC(C)=O)C(OC(C)=O)C1OC(C)=O (stereo unspecified)	30.3 µM (inactive)	3.95 µM (inactive)	25 µM (inactive)	18.5 µM (inactive)	3.23 µM (inactive)	7.55 µM (inactive)	11.5 µM (inactive)	43.3 µM (inactive)	27.5 µM (inactive)	35.8 µM (inactive)	9.55 µM (inactive)	10.9 µM (inactive)	11.7 µM (inactive)	11.4 µM (inactive)	4.12 µM (inactive)	7.06 µM (inactive)	6.98 µM (inactive)	19.1 µM (inactive)	7.62 µM (inactive)	–
COC(=O)C1=C(C(=O)OC)C2(C)CCC(=O)C1O2 (stereo unspecified)	> 10 µM (inactive)	> 10 µM (inactive)	> 10 µM (inactive)	–	> 10 µM (inactive)	> 10 µM (inactive)	> 10 µM (inactive)	> 10 µM (inactive)	> 10 µM (inactive)	> 10 µM (inactive)	> 10 µM (inactive)	> 10 µM (inactive)	> 10 µM (inactive)	2.7 µM (inactive)	> 10 µM (inactive)	> 10 µM (inactive)	> 10 µM (inactive)	> 10 µM (inactive)	> 10 µM (inactive)	> 10 µM (inactive)
COC(=O)c1ccccc1/C=C1\Cc2c(C)c3c(c(C)c2C1=O)CCC3	> 100 µM (inactive)	> 100 µM (inactive)	> 100 µM (inactive)	> 100 µM (inactive)	> 100 µM (inactive)	> 100 µM (inactive)	> 100 µM (inactive)	> 100 µM (inactive)	> 100 µM (inactive)	> 100 µM (inactive)	> 100 µM (inactive)	> 100 µM (inactive)	> 100 µM (inactive)	63.7 µM (inactive)	> 100 µM (inactive)	> 100 µM (inactive)	> 100 µM (inactive)	37.8 µM (inactive)	> 100 µM (inactive)	–
COC(=O)C(Cc1ccccc1)NP(=O)(O)OCC1OC(n2cc(I)c(=O)[nH]c2=O)CC1O (stereo unspecified)	> 100 µM (inactive)	> 100 µM (inactive)	> 100 µM (inactive)	> 100 µM (inactive)	> 100 µM (inactive)	> 100 µM (inactive)	> 100 µM (inactive)	> 100 µM (inactive)	> 100 µM (inactive)	–	> 100 µM (inactive)	> 100 µM (inactive)	> 100 µM (inactive)	> 100 µM (inactive)	> 100 µM (inactive)	> 100 µM (inactive)	> 100 µM (inactive)	> 100 µM (inactive)	> 100 µM (inactive)	> 100 µM (inactive)
C=C(CN)CO[Si](C)(C)C(C)(C)C	> 100 µM (inactive)	> 100 µM (inactive)	> 100 µM (inactive)	–	> 100 µM (inactive)	> 100 µM (inactive)	> 100 µM (inactive)	> 100 µM (inactive)	> 100 µM (inactive)	> 100 µM (inactive)	> 100 µM (inactive)	> 100 µM (inactive)	> 100 µM (inactive)	72.1 µM (inactive)	> 100 µM (inactive)	> 100 µM (inactive)	> 100 µM (inactive)	> 100 µM (inactive)	> 100 µM (inactive)	> 100 µM (inactive)
CC(C)C[C@H](NC(=O)CCc1cccc2ccccc12)B(O)O	0.497 µM (active)	–	4.59 µM (inactive)	2.17 µM (inactive)	2.34 µM (inactive)	0.461 µM (active)	0.452 µM (active)	0.871 µM (active)	0.161 µM (active)	0.908 µM (active)	2.81 µM (inactive)	3.9 µM (inactive)	0.457 µM (active)	7.98 µM (inactive)	0.37 µM (active)	0.676 µM (active)	1.25 µM (inactive)	1.7 µM (inactive)	1.3 µM (inactive)	8.73 µM (inactive)
O=[Se](O)O	19 µM (inactive)	–	> 30.7 µM (inactive)	–	> 28.2 µM (inactive)	2.76 µM (inactive)	2.24 µM (inactive)	31.7 µM (inactive)	0.828 µM (active)	1.95 µM (inactive)	2.88 µM (inactive)	1.1 µM (active)	2.33 µM (inactive)	1.49 µM (inactive)	10 µM (inactive)	12.9 µM (inactive)	> 40 µM (inactive)	0.815 µM (active)	1.32 µM (inactive)	0.984 µM (active)
C[C@@]12CCC3C1C=C1C(=O)c4cc(O)ccc4C(=O)[C@]1(O2)[C@@]3(C)C=O	1.48 µM (inactive)	0.977 µM (active)	9.31 µM (inactive)	10.3 µM (inactive)	2.3 µM (inactive)	2.57 µM (inactive)	3.48 µM (inactive)	–	12.6 µM (inactive)	13.7 µM (inactive)	6.01 µM (inactive)	7.8 µM (inactive)	7.29 µM (inactive)	–	1.58 µM (inactive)	3.9 µM (inactive)	3.55 µM (inactive)	9.44 µM (inactive)	7.43 µM (inactive)	10.2 µM (inactive)
Cc1cc(OC(=O)Nc2ccc(Cl)cc2)ccc1C(=S)Nc1ccccc1	96.6 µM (inactive)	20.7 µM (inactive)	40.6 µM (inactive)	> 100 µM (inactive)	6.49 µM (inactive)	29.3 µM (inactive)	71.3 µM (inactive)	53 µM (inactive)	–	57 µM (inactive)	> 100 µM (inactive)	> 100 µM (inactive)	28 µM (inactive)	49.9 µM (inactive)	64.3 µM (inactive)	> 100 µM (inactive)	34.2 µM (inactive)	> 100 µM (inactive)	3.85 µM (inactive)	> 100 µM (inactive)
Nc1cccnc1NCC1(CO)CCCC1	> 100 µM (inactive)	> 100 µM (inactive)	> 100 µM (inactive)	–	> 100 µM (inactive)	> 100 µM (inactive)	> 100 µM (inactive)	> 100 µM (inactive)	> 100 µM (inactive)	> 100 µM (inactive)	> 100 µM (inactive)	> 100 µM (inactive)	> 100 µM (inactive)	> 100 µM (inactive)	> 100 µM (inactive)	> 100 µM (inactive)	> 100 µM (inactive)	> 100 µM (inactive)	> 100 µM (inactive)	> 100 µM (inactive)
CC(=O)Nc1ccc(C2SCc3nc4ccccc4n32)cc1 (stereo unspecified)	4.91 µM (inactive)	> 100 µM (inactive)	> 100 µM (inactive)	57.7 µM (inactive)	66.8 µM (inactive)	63.8 µM (inactive)	> 100 µM (inactive)	34.7 µM (inactive)	–	> 100 µM (inactive)	37.7 µM (inactive)	87.7 µM (inactive)	60.1 µM (inactive)	34.4 µM (inactive)	> 77.1 µM (inactive)	> 100 µM (inactive)	48.9 µM (inactive)	73.3 µM (inactive)	> 100 µM (inactive)	> 100 µM (inactive)
Nc1nnc(-c2ccco2)c(-c2ccco2)n1	> 100 µM (inactive)	> 100 µM (inactive)	> 100 µM (inactive)	> 100 µM (inactive)	> 100 µM (inactive)	–	> 100 µM (inactive)	> 100 µM (inactive)	> 100 µM (inactive)	> 100 µM (inactive)	> 100 µM (inactive)	> 100 µM (inactive)	> 100 µM (inactive)	86.9 µM (inactive)	> 100 µM (inactive)	> 100 µM (inactive)	> 100 µM (inactive)	> 100 µM (inactive)	> 100 µM (inactive)	> 100 µM (inactive)
CCc1cccc(CC)c1Nc1nc(-c2ccccc2-c2ccccc2)cs1	> 100 µM (inactive)	> 100 µM (inactive)	66.5 µM (inactive)	46.6 µM (inactive)	51.5 µM (inactive)	> 100 µM (inactive)	50.8 µM (inactive)	> 100 µM (inactive)	–	> 100 µM (inactive)	–	53.2 µM (inactive)	79.1 µM (inactive)	29.5 µM (inactive)	52.1 µM (inactive)	> 100 µM (inactive)	> 100 µM (inactive)	54.8 µM (inactive)	86.5 µM (inactive)	> 100 µM (inactive)
CC(C)(C)c1ccc(-n2c3nc(=O)n(-c4ccccc4C(F)(F)F)c(=O)c-3cc3ccccc32)cc1	31.3 µM (inactive)	13.3 µM (inactive)	19.1 µM (inactive)	18.1 µM (inactive)	16.9 µM (inactive)	11.9 µM (inactive)	22.2 µM (inactive)	–	17 µM (inactive)	20.2 µM (inactive)	19.6 µM (inactive)	17 µM (inactive)	15 µM (inactive)	15.6 µM (inactive)	19.3 µM (inactive)	25.8 µM (inactive)	22.9 µM (inactive)	11 µM (inactive)	14.9 µM (inactive)	–
O=C(OCC(OC(=O)c1ccccc1)C1CC(C(O)C2CCCCC2)C(=O)O1)c1ccccc1 (stereo unspecified)	> 100 µM (inactive)	22.5 µM (inactive)	45.9 µM (inactive)	> 100 µM (inactive)	21.4 µM (inactive)	37.4 µM (inactive)	> 100 µM (inactive)	–	87.7 µM (inactive)	> 100 µM (inactive)	49.3 µM (inactive)	45.7 µM (inactive)	17.3 µM (inactive)	51.4 µM (inactive)	20.1 µM (inactive)	42.3 µM (inactive)	37.2 µM (inactive)	71.6 µM (inactive)	> 100 µM (inactive)	> 100 µM (inactive)
